Results from paper PMC5564600 (Oncotarget, 2017).
Read-outs that look alike come from different tables or passages of the source.

How the values were obtained:
Assay in all cases: biochemical
Format in all cases: binding
panel of 442 kinases [1] = target: T1, panel of 442 kinases (Homo sapiens, UniProt P68400); settings: CSNK2A1; for remaining activity at 1 µM: read-out: % of control at 1 µM
T1 construct: purchased Ambit Biosciences (scanMAXX KINOMEscan)

panel of 442 kinases [2] = target: T2, panel of 442 kinases (Homo sapiens, UniProt Q8IVH8); settings: kinase MAP4K3; for remaining activity at 1 µM: read-out: % of control at 1 µM
T2 construct: purchased Ambit Biosciences (scanMAXX KINOMEscan)
T2 sequence (Q8IVH8 1-894): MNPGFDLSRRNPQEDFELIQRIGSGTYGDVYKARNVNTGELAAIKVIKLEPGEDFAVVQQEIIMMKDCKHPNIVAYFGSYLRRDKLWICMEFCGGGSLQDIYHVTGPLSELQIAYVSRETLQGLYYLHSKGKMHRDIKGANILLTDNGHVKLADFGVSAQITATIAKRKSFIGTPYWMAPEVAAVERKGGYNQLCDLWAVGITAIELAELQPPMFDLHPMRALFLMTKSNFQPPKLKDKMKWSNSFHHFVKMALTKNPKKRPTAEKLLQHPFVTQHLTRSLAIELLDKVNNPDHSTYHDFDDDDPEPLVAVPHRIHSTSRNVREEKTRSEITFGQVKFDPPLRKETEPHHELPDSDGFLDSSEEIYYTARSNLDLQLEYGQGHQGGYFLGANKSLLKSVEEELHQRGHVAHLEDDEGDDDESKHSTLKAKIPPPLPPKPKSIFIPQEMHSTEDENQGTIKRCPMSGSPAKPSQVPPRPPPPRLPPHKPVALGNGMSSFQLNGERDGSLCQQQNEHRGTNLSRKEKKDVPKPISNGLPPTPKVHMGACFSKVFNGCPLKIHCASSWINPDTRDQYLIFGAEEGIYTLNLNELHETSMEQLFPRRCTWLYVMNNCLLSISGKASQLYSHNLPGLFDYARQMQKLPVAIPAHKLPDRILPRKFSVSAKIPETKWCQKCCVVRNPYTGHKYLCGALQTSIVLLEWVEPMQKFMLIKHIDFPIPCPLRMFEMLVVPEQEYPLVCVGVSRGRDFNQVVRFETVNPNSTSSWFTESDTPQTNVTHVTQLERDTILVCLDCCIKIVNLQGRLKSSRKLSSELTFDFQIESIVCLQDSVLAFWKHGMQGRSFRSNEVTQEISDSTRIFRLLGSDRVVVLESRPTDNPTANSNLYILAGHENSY

panel of 442 kinases [3] = target: T3, panel of 442 kinases (Homo sapiens, UniProt O75582)
T3 construct: purchased Ambit Biosciences (scanMAXX KINOMEscan)

panel of 442 kinases [4] = target: T4, panel of 442 kinases (Homo sapiens, UniProt Q8NG66); settings: kinase NEK11; for remaining activity at 1 µM: read-out: % of control at 1 µM
T4 construct: purchased Ambit Biosciences (scanMAXX KINOMEscan)
T4 sequence (Q8NG66 1-645): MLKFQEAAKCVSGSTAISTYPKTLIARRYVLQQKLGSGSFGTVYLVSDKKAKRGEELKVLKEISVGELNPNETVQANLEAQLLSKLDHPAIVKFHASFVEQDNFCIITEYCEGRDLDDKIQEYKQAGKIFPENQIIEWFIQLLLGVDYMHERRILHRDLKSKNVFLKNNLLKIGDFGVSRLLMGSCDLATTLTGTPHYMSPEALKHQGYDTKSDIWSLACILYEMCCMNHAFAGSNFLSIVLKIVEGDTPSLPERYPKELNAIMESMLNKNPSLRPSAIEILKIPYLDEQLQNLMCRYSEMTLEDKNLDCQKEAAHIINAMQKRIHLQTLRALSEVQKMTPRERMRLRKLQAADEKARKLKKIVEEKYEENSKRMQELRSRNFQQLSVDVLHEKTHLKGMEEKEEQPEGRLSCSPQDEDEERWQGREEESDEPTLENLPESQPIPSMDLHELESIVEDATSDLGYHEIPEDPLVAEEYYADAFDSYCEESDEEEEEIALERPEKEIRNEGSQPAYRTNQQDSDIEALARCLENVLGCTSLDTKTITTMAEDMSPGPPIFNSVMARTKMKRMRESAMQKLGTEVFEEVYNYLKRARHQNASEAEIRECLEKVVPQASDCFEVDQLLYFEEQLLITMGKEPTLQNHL

panel of 442 kinases [5] = target: T5, panel of 442 kinases (Homo sapiens, UniProt Q9BQI3); settings: EIF2AK1; for remaining activity at 1 µM: read-out: % of control at 1 µM
T5 construct: purchased Ambit Biosciences (scanMAXX KINOMEscan)

panel of 442 kinases [6] = target: T6, panel of 442 kinases (Homo sapiens, UniProt Q9Y2K2); settings: kinase QSK; for remaining activity at 1 µM: read-out: QSK (% of control at 1 µM)
T6 construct: purchased Ambit Biosciences (scanMAXX KINOMEscan)

panel of 442 kinases [7] = target: T7, panel of 442 kinases (Homo sapiens, UniProt Q86YV6); settings: kinase MYLK4; for remaining activity at 1 µM: read-out: % of control at 1 µM
T7 construct: purchased Ambit Biosciences (scanMAXX KINOMEscan)
T7 sequence (Q86YV6 1-388): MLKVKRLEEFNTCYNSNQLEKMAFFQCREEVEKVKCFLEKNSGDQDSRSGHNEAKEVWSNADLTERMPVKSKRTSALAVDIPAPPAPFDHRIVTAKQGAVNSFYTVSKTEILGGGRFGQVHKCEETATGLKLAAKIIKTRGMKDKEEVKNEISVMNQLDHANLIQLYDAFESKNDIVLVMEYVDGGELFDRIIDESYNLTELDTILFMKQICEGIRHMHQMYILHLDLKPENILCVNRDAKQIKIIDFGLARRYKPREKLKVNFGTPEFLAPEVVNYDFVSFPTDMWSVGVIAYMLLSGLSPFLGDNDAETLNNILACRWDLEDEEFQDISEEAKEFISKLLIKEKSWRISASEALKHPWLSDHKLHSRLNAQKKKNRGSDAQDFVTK

panel of 442 kinases [8] = target: T8, panel of 442 kinases (Homo sapiens, UniProt O43353); settings: kinase RIPK2; for remaining activity at 1 µM: read-out: RIPK2 (% of control at 1 µM)
T8 construct: purchased Ambit Biosciences (scanMAXX KINOMEscan)

panel of 442 kinases [9] = target: T9, panel of 442 kinases (Homo sapiens, UniProt P35590); settings: kinase TIE1; for remaining activity at 1 µM: read-out: TIE1 (% of control at 1 µM)
T9 construct: purchased Ambit Biosciences (scanMAXX KINOMEscan)

panel of 442 kinases [10] = target: T10, panel of 442 kinases (Homo sapiens, UniProt Q9Y2H9); settings: kinase MAST1; for remaining activity at 1 µM: read-out: % of control at 1 µM
T10 construct: purchased Ambit Biosciences (scanMAXX KINOMEscan)

[11] = 10 µM, read-out: % of control at 10 µM
[12] = kinase RPS6KA5(Kin.Dom.1-N-terminal), read-out: RPS6KA5(Kin.Dom.1-N-terminal) (% of control at 1 µM)
[13] = kinase RPS6KA5(Kin.Dom.2-C-terminal), read-out: RPS6KA5(Kin.Dom.2-C-terminal) (% of control at 1 µM)

T1 sequence (P68400 whole entry): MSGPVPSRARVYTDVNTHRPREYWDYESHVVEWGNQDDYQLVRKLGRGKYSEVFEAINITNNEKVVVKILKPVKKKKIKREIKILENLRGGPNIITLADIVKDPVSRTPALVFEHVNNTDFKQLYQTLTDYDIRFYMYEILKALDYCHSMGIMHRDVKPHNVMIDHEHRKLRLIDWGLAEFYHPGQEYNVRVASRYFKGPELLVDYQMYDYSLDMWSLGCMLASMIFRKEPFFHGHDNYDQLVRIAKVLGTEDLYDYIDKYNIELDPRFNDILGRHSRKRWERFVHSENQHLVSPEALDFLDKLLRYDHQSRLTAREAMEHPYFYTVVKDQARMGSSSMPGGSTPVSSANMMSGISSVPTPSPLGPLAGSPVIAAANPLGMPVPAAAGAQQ
T5 sequence (Q9BQI3 whole entry): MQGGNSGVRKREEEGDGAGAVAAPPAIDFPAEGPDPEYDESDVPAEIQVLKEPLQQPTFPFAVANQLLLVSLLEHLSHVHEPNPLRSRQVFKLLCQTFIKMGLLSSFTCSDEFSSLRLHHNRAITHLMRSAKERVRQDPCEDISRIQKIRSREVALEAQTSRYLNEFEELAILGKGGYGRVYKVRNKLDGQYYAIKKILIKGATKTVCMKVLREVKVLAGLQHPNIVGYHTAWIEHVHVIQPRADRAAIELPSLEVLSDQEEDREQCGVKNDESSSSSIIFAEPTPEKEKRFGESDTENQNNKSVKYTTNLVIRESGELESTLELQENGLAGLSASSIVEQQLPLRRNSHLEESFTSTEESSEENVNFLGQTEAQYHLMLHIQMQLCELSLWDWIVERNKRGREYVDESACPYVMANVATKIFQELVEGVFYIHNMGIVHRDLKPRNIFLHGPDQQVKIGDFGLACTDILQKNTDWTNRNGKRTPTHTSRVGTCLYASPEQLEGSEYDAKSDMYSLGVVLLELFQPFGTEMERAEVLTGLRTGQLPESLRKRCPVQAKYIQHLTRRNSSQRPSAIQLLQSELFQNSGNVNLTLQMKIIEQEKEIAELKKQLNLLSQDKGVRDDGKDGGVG
T3 sequence (O75582 whole entry): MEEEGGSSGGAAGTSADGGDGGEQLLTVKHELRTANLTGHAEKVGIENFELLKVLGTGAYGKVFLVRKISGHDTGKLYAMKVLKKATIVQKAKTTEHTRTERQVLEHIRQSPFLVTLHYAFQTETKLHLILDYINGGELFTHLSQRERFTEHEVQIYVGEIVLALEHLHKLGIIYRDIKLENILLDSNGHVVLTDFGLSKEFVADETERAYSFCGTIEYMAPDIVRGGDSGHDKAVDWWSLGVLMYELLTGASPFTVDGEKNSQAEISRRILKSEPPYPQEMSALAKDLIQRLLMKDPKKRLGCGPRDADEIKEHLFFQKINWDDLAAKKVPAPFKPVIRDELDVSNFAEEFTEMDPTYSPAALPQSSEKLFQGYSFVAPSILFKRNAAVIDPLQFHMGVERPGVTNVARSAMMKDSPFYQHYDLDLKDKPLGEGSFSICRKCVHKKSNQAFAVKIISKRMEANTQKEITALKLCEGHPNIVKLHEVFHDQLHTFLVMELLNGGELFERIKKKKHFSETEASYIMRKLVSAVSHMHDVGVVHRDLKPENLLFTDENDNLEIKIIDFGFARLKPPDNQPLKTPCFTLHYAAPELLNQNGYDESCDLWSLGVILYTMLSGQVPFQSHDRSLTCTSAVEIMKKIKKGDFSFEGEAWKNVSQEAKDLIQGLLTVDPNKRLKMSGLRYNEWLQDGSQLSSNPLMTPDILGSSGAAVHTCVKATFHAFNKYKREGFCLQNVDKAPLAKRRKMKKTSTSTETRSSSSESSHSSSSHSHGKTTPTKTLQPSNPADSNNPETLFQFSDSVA
T9 sequence (P35590 22-1138): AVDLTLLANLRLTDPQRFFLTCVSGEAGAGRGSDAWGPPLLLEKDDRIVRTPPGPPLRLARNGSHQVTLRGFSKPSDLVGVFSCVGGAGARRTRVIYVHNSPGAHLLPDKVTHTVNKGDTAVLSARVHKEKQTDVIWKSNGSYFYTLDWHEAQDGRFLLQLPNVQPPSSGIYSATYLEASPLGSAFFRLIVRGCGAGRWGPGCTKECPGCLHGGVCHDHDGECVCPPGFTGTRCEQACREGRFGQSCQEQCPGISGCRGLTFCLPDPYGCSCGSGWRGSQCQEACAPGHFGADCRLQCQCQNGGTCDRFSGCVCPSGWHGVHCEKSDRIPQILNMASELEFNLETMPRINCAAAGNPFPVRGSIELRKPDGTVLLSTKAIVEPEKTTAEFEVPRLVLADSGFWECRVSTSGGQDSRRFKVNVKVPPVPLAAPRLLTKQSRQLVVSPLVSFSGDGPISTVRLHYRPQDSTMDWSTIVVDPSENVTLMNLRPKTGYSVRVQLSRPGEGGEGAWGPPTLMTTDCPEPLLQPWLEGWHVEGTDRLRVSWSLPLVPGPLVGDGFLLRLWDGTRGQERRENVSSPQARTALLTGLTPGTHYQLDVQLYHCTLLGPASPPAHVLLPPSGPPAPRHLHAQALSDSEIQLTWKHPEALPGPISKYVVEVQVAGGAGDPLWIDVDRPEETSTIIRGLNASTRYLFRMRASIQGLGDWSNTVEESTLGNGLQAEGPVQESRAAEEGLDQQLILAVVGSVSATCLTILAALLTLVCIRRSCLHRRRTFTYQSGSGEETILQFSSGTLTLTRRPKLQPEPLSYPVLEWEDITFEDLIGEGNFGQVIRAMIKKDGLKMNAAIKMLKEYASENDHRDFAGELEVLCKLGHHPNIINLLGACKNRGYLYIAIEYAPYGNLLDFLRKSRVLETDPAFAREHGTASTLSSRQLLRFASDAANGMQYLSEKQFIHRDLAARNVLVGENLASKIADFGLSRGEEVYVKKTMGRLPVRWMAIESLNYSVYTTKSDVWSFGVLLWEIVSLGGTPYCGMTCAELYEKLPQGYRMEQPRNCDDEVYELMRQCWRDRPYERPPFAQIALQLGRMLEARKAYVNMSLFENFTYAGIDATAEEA
T6 sequence (Q9Y2K2 whole entry): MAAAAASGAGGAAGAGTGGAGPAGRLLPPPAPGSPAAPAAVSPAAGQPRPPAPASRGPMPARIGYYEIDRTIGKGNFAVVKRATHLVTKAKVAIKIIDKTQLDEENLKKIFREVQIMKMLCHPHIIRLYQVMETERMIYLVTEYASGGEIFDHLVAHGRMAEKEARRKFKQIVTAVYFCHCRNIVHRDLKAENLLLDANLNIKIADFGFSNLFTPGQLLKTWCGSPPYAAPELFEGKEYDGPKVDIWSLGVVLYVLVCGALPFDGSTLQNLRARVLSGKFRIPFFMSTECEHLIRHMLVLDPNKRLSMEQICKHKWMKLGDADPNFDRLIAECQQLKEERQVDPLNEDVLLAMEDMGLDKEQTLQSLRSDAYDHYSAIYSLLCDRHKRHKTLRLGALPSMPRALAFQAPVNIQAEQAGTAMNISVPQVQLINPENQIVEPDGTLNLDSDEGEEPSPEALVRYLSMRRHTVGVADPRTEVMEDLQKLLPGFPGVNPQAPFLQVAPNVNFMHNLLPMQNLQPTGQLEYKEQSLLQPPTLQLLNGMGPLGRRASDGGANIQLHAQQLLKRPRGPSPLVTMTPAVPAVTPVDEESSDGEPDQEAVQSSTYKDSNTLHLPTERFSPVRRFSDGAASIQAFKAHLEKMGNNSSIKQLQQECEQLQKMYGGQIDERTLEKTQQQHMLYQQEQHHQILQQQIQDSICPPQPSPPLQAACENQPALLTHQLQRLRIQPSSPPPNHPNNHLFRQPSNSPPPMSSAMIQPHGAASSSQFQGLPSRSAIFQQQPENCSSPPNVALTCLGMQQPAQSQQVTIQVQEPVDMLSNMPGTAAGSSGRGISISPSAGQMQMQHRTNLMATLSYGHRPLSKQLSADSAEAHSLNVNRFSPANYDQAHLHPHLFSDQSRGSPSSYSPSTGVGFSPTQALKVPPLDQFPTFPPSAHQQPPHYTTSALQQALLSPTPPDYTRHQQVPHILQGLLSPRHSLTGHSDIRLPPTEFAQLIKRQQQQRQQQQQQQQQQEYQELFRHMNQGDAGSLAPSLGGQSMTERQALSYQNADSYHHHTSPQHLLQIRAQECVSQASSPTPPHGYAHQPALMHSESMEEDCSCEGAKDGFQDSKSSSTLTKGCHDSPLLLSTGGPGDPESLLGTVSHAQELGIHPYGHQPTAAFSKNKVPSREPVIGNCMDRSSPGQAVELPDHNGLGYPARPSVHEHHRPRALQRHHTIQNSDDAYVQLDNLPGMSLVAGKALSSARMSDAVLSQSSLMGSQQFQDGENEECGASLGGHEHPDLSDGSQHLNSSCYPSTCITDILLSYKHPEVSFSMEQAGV
T8 sequence (O43353 whole entry): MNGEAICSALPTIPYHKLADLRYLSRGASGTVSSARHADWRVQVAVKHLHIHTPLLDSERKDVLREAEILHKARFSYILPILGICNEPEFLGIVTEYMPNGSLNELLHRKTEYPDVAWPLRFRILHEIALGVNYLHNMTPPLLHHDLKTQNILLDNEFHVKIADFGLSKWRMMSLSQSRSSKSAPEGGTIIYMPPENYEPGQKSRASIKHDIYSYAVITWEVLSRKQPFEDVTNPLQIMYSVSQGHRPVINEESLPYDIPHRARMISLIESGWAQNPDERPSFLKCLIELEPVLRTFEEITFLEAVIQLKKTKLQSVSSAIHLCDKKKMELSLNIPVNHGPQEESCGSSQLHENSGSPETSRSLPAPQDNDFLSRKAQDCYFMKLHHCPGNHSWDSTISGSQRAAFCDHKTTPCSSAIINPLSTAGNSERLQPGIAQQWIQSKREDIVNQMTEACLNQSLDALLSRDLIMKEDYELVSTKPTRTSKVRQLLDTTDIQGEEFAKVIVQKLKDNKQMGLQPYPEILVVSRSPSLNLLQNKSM

Compound	remaining activity at 1 µM (panel of 442 kinases [1])	remaining activity at 1 µM (panel of 442 kinases [2])	remaining activity at 1 µM (panel of 442 kinases [3]; [12])	remaining activity at 1 µM (panel of 442 kinases [3]; [13])	remaining activity at 1 µM (panel of 442 kinases [4])	remaining activity at 1 µM (panel of 442 kinases [5])	remaining activity at 1 µM (panel of 442 kinases [6])	remaining activity at 1 µM (panel of 442 kinases [7])	remaining activity at 1 µM (panel of 442 kinases [8])	remaining activity at 1 µM (panel of 442 kinases [9])	remaining activity at 1 µM (panel of 442 kinases [10])	also measured
Nc1cc(C(F)(F)F)c(-c2cc(N3CCOCC3)nc(N3CCOCC3)n2)cn1 [Buparlisib]	91%	93%	100%	74%	74%	92%	100%	100%	100%	96%	53%	remaining activity at 10 µM (panel of 442 kinases [1]; [11]): 100%; remaining activity at 10 µM (panel of 442 kinases [2]; [11]): 81%; remaining activity at 10 µM (panel of 442 kinases [3]; kinase RPS6KA5(Kin.Dom.1-N-terminal), read-out: RPS6KA5(Kin.Dom.1-N-terminal) (% of control at 10 µM)): 100%; remaining activity at 10 µM (panel of 442 kinases [3]; kinase RPS6KA5(Kin.Dom.2-C-terminal), read-out: RPS6KA5(Kin.Dom.2-C-terminal) (% of control at 10 µM)): 96%; remaining activity at 10 µM (panel of 442 kinases [4]; [11]): 96%; remaining activity at 10 µM (panel of 442 kinases [5]; [11]): 100%; remaining activity at 10 µM (panel of 442 kinases [6]; 10 µM, read-out: QSK (% of control at 10 µM)): 100%; remaining activity at 10 µM (panel of 442 kinases [7]; [11]): 100%; remaining activity at 10 µM (panel of 442 kinases [8]; 10 µM, read-out: RIPK2 (% of control at 10 µM)): 100%; remaining activity at 10 µM (panel of 442 kinases [9]; 10 µM, read-out: TIE1 (% of control at 10 µM)): 100%; remaining activity at 10 µM (panel of 442 kinases [10]; [11]): 73%
Cn1c(=O)n(-c2ccc(C(C)(C)C#N)cc2)c2c3cc(-c4cnc5ccccc5c4)ccc3ncc21 [Dactolisib, 2-methyl-2-[4-(3-methyl-2-oxo-8-quinolin-3-yl-2,3-dihydroimidazo[4,5-c]quinolin-1-yl)-phenyl] propionitrile]	64%	30%	64%	100%	81%	94%	100%	95%	37%	100%	100%	
COc1ncc(-c2ccc3nccc(-c4ccnnc4)c3c2)cc1NS(=O)(=O)c1ccc(F)cc1F [Omipalisib]	100%	85%	100%	100%	100%	100%	100%	84%	59%	100%	100%	
FC(F)c1nc2ccccc2n1-c1nc(N2CCOCC2)nc(N2CCOCC2)n1 [ZSTK474, 2-(difluoromethyl)-1-[4,6-di(4-morpholinyl)-1,3,5-triazin-2-yl]-1H-benzimidazole]	90%	87%	81%	100%	82%	77%	65%	100%	83%	88%	100%	
